Measurements from patent publication US7622491B2, “Modulators of PPAR and methods of their preparation” (Metabolex Inc., priority 2004, dated 2009).
pEC50: −log10 of the molar value. Where two headings read alike, the source gives them in different places.

Assays:
Assay type in all cases: cell-based
mouse PPAR δ = molecular target: T1, mouse PPAR δ (Mus musculus, UniProt P35396); assay: PPAR δ transactivation (GAL4 chimeric receptor luciferase reporter) assay; conditions: GAL4-mPPAR δ chimeric receptor, pFR-Luc reporter, HEK293T cells, 20 hours incubation
T1 construct: expressed in transfected cells; host or cells: HEK293T
T1 sequence (P35396 210-438 limits assumed): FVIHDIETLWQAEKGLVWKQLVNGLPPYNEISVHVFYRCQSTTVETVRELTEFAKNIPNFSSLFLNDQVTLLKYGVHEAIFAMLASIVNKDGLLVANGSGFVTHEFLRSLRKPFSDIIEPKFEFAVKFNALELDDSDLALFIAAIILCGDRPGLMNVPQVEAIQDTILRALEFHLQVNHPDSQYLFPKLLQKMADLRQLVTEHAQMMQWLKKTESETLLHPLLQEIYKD
Source text: (§1) Chimeric receptors were constructed in which the yeast transcription factor GAL4 DNA binding domain was fused to the ligand binding domain of either mouse PPARγ, mouse PPAR δ or mouse PPAR α in order to assess the ability of the compounds of the present invention to activate gene expression in a PPAR-dependent manner. The chimeric receptor expression plasmids (GAL4-mPPARγ, GAL4-mPPAR δ and GAL4-PPAR α) and the reporter plasmid containing 5×GAL4 binding site (pFR-Luc, obtained from Stratagene) were transfected into HEK293T cells using the Lipofectamine 2000 reagent (Invitrogen), according to the manufacturers instructions. Six hours after transfection, the culture medium was renewed and the cells were incubated for 20 hours in presence of either 1) DMSO (vehicle), 2) a compound of the invention or 3) a reference compound for comparison. Rosiglitazone (obtained from WDF Pharma) was used as a reference compound for the PPARγ assay; GW501516 (prepared as described in Sznaidman et al. Bioorg. Med. Chem. Lett. (2003) 13:1517-1521) was used as a reference compound for the PPAR δ assay and GW7647 (obtained from Sigma) was used as a reference compound for the PPAR α assay. Luciferase activity was measured as a reporter of gene expression. Luciferase activity on the cell lysates using the Steady-Glo reagent was measured according to the manufacturers instructions.

mouse PPAR α = molecular target: T2, mouse PPAR α (Mus musculus, UniProt P23204); assay: PPAR α transactivation (GAL4 chimeric receptor luciferase reporter) assay
T2 construct: expressed in transfected cells; host or cells: HEK293T
T2 sequence (P23204 239-466 limits assumed): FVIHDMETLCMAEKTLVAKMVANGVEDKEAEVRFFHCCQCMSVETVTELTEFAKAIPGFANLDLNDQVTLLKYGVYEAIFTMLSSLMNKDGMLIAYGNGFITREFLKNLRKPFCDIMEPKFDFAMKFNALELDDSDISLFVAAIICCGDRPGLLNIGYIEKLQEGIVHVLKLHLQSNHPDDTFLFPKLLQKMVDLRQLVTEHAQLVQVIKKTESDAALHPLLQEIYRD
Source text: as §1

mouse PPARγ = molecular target: T3, mouse PPARγ (Mus musculus, UniProt P37238); assay: PPARγ transactivation (GAL4 chimeric receptor luciferase reporter) assay; conditions: GAL4-mPPARγ chimeric receptor, pFR-Luc reporter, HEK293T cells, 20 hours incubation
T3 construct: expressed in transfected cells; host or cells: HEK293T
T3 sequence (P37238 238-503 limits assumed): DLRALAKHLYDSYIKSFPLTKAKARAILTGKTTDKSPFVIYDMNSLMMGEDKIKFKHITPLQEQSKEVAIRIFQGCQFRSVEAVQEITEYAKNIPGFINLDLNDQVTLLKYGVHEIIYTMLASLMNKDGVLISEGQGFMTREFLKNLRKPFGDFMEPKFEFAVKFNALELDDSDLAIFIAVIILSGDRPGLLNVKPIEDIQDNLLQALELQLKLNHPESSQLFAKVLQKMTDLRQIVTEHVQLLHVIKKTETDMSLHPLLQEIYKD
Source text: as §1

[1] = pFR-Luc reporter, HEK293T cells, 20 hours incubation
[2] = read-out: Gene Activation Assay: EC50 (≦10 μM) PPAR alpha, pFR-Luc reporter, HEK293T cells, 20 hours incubation

SMILES | pEC50 (mouse PPAR δ) | pEC50 (mouse PPAR α; [1]) | pEC50 (mouse PPARγ) | pEC50 (mouse PPAR α; [2])
Cc1cc(SCCCOc2ccc(Br)cc2-c2nc3ccccc3o2)ccc1OCC(=O)O [Compound 300, {4-[3-(2-Benzooxazol-2-yl-4-bromo-phenoxy)-propylsulfanyl]-2-methyl-phenoxy}-acetic acid] | ≥ 5.00 | ≥ 5.00 | ≥ 5.00 | –
COc1cccc(C#Cc2cc(Cl)ccc2OCCCOc2ccc(CC(=O)O)cc2)c1 [Compound 1400, (4-{3-[4-Chloro-2-(3-methoxy-phenylethynyl)-phenoxy]-propoxy}-phenyl)-acetic acid] | ≥ 5.00 | – | ≥ 5.00 | < 5.00
Cc1cc(SCCOc2ccc(Cl)cc2-n2nc3ccccc3n2)ccc1OCC(=O)O [Compound 400, {4-[2-(2-Benzotriazol-2-yl-4-chloro-phenoxy)-ethylsulfanyl]-2-methyl-phenoxy}-acetic acid] | ≥ 5.00 | – | ≥ 5.00 | < 5.00
O=C(O)Cc1ccc(OCCCOc2ccc(Cl)cc2C#Cc2ccccc2)cc1 [Compound 1300, {4-[3-(4-Chloro-2-phenylethynyl-phenoxy)-propoxy]-phenyl}-acetic acid] | ≥ 5.00 | – | ≥ 5.00 | < 5.00
O=C(O)Cn1ncc2cc(OCCCOc3ccc(Cl)cc3-n3nc4ccccc4n3)ccc21 [Compound 1700, {5-[3-(2-Benzotriazol-2-yl-4-chloro-phenoxy)-propoxy]-indazol-1-yl}-acetic acid] | ≥ 5.00 | < 4.52 | ≥ 5.00 | –
O=C(O)Cc1ccc(OCCCOc2ccc(Cl)cc2-n2nc3ccccc3n2)cc1 [Compound 500, {4-[3-(2-Benzotriazol-2-yl-4-chloro-phenoxy)-propoxy]-phenyl}-acetic acid] | ≥ 5.00 | ≥ 5.00 | ≥ 5.00 | –
CCCc1cc(CC(=O)O)ccc1OCCOc1ccc(Cl)cc1-n1nc2ccccc2n1 [Compound 900, {4-[2-(2-Benzotriazol-2-yl-4-chloro-phenoxy)-ethoxy]-3-propyl-phenyl}-acetic acid] | ≥ 5.00 | < 4.52 | ≥ 5.00 | –
Cc1cccc2nn(-c3cc(Cl)ccc3OCCCOc3ccc(CC(=O)O)cc3)nc12 [Compound 1600, (4-{3-[4-Chloro-2-(4-methyl-benzotriazol-2-yl)-phenoxy]-propoxy}-phenyl)-acetic acid] | ≥ 5.00 | ≥ 5.00 | ≥ 5.00 | –
CCCc1cc(CC(=O)O)ccc1OCCCOc1ccc(Cl)cc1-n1nc2ccccc2n1 [Compound 600, {4-[3-(2-Benzotriazol-2-yl-4-chloro-phenoxy)-propoxy]-3-propyl-phenyl}-acetic acid] | ≥ 5.00 | ≥ 5.00 | ≥ 5.00 | –
O=C(O)Cn1ccc2cc(OCCOc3ccc(Cl)cc3-n3nc4ccccc4n3)ccc21 [Compound 1900, {5-[2-(2-Benzotriazol-2-yl-4-chloro-phenoxy)-ethoxy]-indol-1-yl}-acetic acid] | ≥ 5.00 | – | ≥ 5.00 | < 5.00
O=C(O)Cc1ccc(OCCOc2ccc(Cl)cc2-n2nc3ccccc3n2)cc1 [Compound 800, {4-[2-(2-Benzotriazol-2-yl-4-chloro-phenoxy)-ethoxy]-phenyl}-acetic acid] | ≥ 5.00 | – | ≥ 5.00 | < 5.00
O=C(O)Cc1ccc(OCCCOc2ccc(Cl)cc2-n2nc3c(n2)CCCC3)cc1 [Compound 1200, (4-{3-[4-Chloro-2-(4,5,6,7-tetrahydro-benzotriazol-2-yl)-phenoxy]-propoxy}-phenyl)-acetic acid] | ≥ 5.00 | ≥ 5.00 | ≥ 5.00 | –
O=C(O)Cc1ccc(OCCCOc2ccc(Cl)cc2C#Cc2ccccn2)cc1 [Compound 1500, {4-[3-(4-Chloro-2-pyridin-2-ylethynyl-phenoxy)-propoxy]-phenyl}-acetic acid] | ≥ 5.00 | – | ≥ 5.00 | < 5.00
O=C(O)Cn1ccc2cc(OCCCOc3ccc(Cl)cc3-n3nc4ccccc4n3)ccc21 [Compound 1800, {5-[3-(2-Benzotriazol-2-yl-4-chloro-phenoxy)-propoxy]-indol-1-yl}-acetic acid] | ≥ 5.00 | – | ≥ 5.00 | < 5.00
